The subject of data set [1] is Duck hepatitis B virus. The data set is described as follows: Antiviral activity against Duck hepatitis B virus (DHBV) infected duck assessed as reduction in viral DNA level at 10 mg/kg, po for 30 days measured on day 30 by RT-PCR analysis. It is filed as functional, organism-based. The arrangement: dose 10 mg/kg.
Data set [2] relates to Duck hepatitis B virus. The experiment in a line: Antiviral activity against Duck hepatitis B virus (DHBV) infected duck assessed as viral DNA level at 10 mg/kg, po for 30 days measured on day 15 post initial treatment by RT-PCR analysis. The arrangement: dose 10 mg/kg. It is filed as functional, organism-based.
The subject of data set [3] is Duck hepatitis B virus. The data set is described as follows: Antiviral activity against Duck hepatitis B virus (DHBV) infected duck assessed as reduction in viral DNA level at 10 mg/kg, po for 30 days measured on day 15 post termination of treatment by RT-PCR analysis. It is filed as functional, organism-based. The arrangement: dose 10 mg/kg.
Data set [4] relates to Duck hepatitis B virus. The experiment in a line: Antiviral activity against Duck hepatitis B virus (DHBV) infected duck assessed as liver weight at 10 mg/kg, po for 30 days (reference value: 1.25 g). It is filed as functional.
Data set [5] concerns HepG2. The experiment in a line: Cytotoxicity against Homo sapiens (human) HepG2 cells at <1000 uM after 72 hr by MTT assay. It is filed as cell-based. The following applies: hepg2, 72 h.
The test system of data set [6] is Duck hepatitis B virus. The data set is described as follows: Antiviral activity against Duck hepatitis B virus (DHBV) infected duck assessed as reduced inflammation in liver at 10 mg/kg, po for 30 days. It is filed as functional, organism-based. Also on record: dose 10 mg/kg.
The test system of data set [7] is Duck hepatitis B virus. The data set is described as follows: Antiviral activity against Duck hepatitis B virus (DHBV) infected duck assessed as liver weight at 50 mg/kg, po for 30 days (reference value: 1.25 g). It is filed as functional.
Data set [8] deals with HepG2. The data set is described as follows: Cytotoxicity against Homo sapiens (human) HepG2 assessed as mitochondrial DNA level at 0.1 to 10 umol for 8 days by dot blot assay. It is filed as cell-based. The conditions noted are these: hepg2, 192 h.
Data set [9] concerns Duck hepatitis B virus. The data set is described as follows: Antiviral activity against Duck hepatitis B virus (DHBV) infected duck assessed as liver weight at 2 mg/kg, po for 30 days (reference value: 1.25 g). It is filed as functional.
Data set [10] concerns Duck hepatitis B virus. The data set is described as follows: Antiviral activity against Duck hepatitis B virus (DHBV) infected duck assessed as reduction in viral DNA level at 2 to 50 mg/kg, po for 30 days measured on day 15 post initial treatment by RT-PCR analysis. It is filed as functional, organism-based.
In data set [11] the test system is Duck hepatitis B virus. The data set is described as follows: Antiviral activity against Duck hepatitis B virus (DHBV) infected duck assessed as reduction in viral DNA level at 2 to 50 mg/kg, po for 30 days measured on day 30 by RT-PCR analysis. It is filed as functional, organism-based.
In data set [12] the test system is Duck hepatitis B virus. The data set is described as follows: Antiviral activity against Duck hepatitis B virus (DHBV) infected duck assessed as viral DNA level at 2 to 50 mg/kg, po for 30 days measured on day 15 post initial treatment by RT-PCR analysis. It is filed as functional, organism-based.
Data set [13] concerns Duck hepatitis B virus. The data set is described as follows: Antiviral activity against Duck hepatitis B virus (DHBV) infected duck assessed as reduction in viral DNA level at 2 to 50 mg/kg, po for 30 days measured on day 15 post termination of treatment by RT-PCR analysis. It is filed as functional, organism-based.
For data set [14], the system named is Duck hepatitis B virus. The data set is described as follows: Antiviral activity against Duck hepatitis B virus (DHBV) infected duck assessed as reduced inflammation in liver at 2 to 50 mg/kg, po for 30 days. It is filed as functional, organism-based.
Data set [15] deals with Duck hepatitis B virus. The experiment in a line: Antiviral activity against Duck hepatitis B virus (DHBV) infected po dosed duck assessed as reduction in viral DNA level administered for 30 days measured on day 15 post initial treatment by RT-PCR analysis. It is filed as functional, organism-based.
Data set [16] has as its system Duck hepatitis B virus. The data set is described as follows: Antiviral activity against Duck hepatitis B virus (DHBV) infected po dosed duck assessed as reduction in viral DNA level administered for 30 days measured on day 30 by RT-PCR analysis. It is filed as functional, organism-based.
In data set [17] the test system is Duck hepatitis B virus. The experiment in a line: Antiviral activity against Duck hepatitis B virus (DHBV) infected po dosed duck assessed as reduction in viral DNA level administered for 30 days measured on day 15 post termination of treatment by RT-PCR analysis. It is filed as functional, organism-based.
Data set [18] has as its system HepG2. The data set is described as follows: Cytotoxicity against Homo sapiens (human) HepG2 assessed as mitochondrial DNA level for 8 days by dot blot assay. It is filed as cell-based. The conditions noted are these: hepg2, 192 h.

Active and inactive are the calls of the source. The calls are words filed in the database; no cut-off is given here.

For `CC(C)(C)C(=O)OCOP(=O)(COCCn1cnc2c(N)ncnc21)OCOC(=O)C(C)(C)C` [ADEFOVIR DIPIVOXIL], the inhibition entry in the data set with Duck hepatitis B virus [1], with Duck hepatitis B virus [3] and with Duck hepatitis B virus [6] was “Active” throughout. The outcome in the data set on Duck hepatitis B virus [2] was inactive. Further, the Activity in the data set on Duck hepatitis B virus [4] was 0.8 g; with HepG2 [5], “Non-toxic”.
On to `CC(Cn1cnc2c(Sc3ccc4c(c3)CCO4)nc(N)nc21)OCP(=O)(OCC(F)(F)F)OCC(F)(F)F` (stereo unspecified), for which the Activity in the data set on Duck hepatitis B virus [7] is 0.95 g; with HepG2 [8] it was “Non-toxic”; in the data set on Duck hepatitis B virus [9], 0.9 g; in the data set on Duck hepatitis B virus [4], 0.75 g; with HepG2 [5], “Non-toxic”. Also, the inhibition result with Duck hepatitis B virus [10], in the data set on Duck hepatitis B virus [11], in the data set with Duck hepatitis B virus [13] and with Duck hepatitis B virus [14] was “Active” each time. The result with Duck hepatitis B virus [12] was inactive.
Take `COc1ccc(Sc2nc(N)nc3c2ncn3CCOCP(=O)(OCC(F)(F)F)OCC(F)(F)F)cc1F`: the Activity in the data set on Duck hepatitis B virus [7] is 0.85 g; with HepG2 [8] it was “Non-toxic”; in the data set on Duck hepatitis B virus [9] it was 0.8 g; in the data set with Duck hepatitis B virus [4], 0.8 g; in the data set on HepG2 [5] it was “Non-toxic”. For the same compound, the inhibition result in the data set on Duck hepatitis B virus [10], in the data set with Duck hepatitis B virus [11], in the data set on Duck hepatitis B virus [13] and in the data set with Duck hepatitis B virus [14] was “Active” throughout.
Regarding `CSc1ccc(Sc2nc(N)nc3c2ncn3CCOCP(=O)(OCC(F)(F)F)OCC(F)(F)F)cc1`, the inhibition entry with Duck hepatitis B virus [15], in the data set on Duck hepatitis B virus [16] and in the data set on Duck hepatitis B virus [17] was “Dose-dependent effect” throughout. In addition, the Activity in the data set with Duck hepatitis B virus [7] is listed as 0.55 g; in the data set on HepG2 [8] it was “Non-toxic”; in the data set on Duck hepatitis B virus [9], 0.8 g; in the data set on Duck hepatitis B virus [4], 0.75 g; with HepG2 [5], “Non-toxic”. Moreover, the inhibition entry with Duck hepatitis B virus [14] was “Active”.
For `Nc1ccn([C@H]2CC[C@@H](CO)O2)c(=O)n1` [ZALCITABINE], the Activity entry with HepG2 [18] was “Dose-dependent effect”; in the data set on HepG2 [8], “Toxic”.

Source of the values: ChEMBL document CHEMBL3046955, “Antiviral effects of three novel derivatives of adefovir on the replication of hepatitis B virus” (Med Chem Res, 2012).
